We go through two molecules from patent publication US4868195A, “Novel enolamides, pharmaceutical compositions and methods of use thereof for activity as modulators of the arachidonic acid cascade” (Warner-Lambert Company, priority 1988, dated 1989).

SMILES strings stand for the structures. “And” between values parts separate entries of the source, which are not always exact repeats. Equal entries are not always repeated.

The target in the experiment is T1, 5-lipoxygenase (Homo sapiens, UniProt P09917).
T1 construct: endogenous in cells; host or cells: intact leukocytes isolated from human blood
T1 sequence (P09917 1-674): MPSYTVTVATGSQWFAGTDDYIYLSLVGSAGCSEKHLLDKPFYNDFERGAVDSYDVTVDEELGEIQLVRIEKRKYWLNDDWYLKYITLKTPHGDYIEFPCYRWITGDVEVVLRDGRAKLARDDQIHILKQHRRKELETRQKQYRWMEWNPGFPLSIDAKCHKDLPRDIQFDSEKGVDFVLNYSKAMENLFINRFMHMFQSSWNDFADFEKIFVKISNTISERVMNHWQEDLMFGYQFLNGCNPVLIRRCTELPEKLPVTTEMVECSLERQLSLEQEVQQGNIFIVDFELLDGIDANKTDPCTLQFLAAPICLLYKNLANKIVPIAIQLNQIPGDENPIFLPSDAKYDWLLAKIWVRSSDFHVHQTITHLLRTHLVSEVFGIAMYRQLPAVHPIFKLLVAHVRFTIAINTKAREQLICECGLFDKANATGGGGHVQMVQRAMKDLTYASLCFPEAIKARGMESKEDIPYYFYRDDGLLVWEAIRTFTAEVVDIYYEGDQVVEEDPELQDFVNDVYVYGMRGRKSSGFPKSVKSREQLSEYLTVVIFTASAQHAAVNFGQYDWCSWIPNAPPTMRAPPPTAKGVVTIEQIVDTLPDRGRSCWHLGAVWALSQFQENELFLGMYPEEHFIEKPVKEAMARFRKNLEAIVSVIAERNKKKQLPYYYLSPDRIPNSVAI
Put plainly: 5-Lipoxygenase Assay Using Isolated Human Leukocytes (5LOA2). In kind it is cell-based. The following applies: 5-HETE formation, HPLC, read-out: Concentration (M) for 50.0 % Inhibition, IC (5LOA2). The procedure:
5-Lipoxygenase Assay Using Isolated Human Leukocytes (5LOA2)
The formation of 5-HETE in human leukocytes is considered a measure of 5-lipoxygenase activity. The protocol is described in the following.
Fresh heparinized or EDTA treated human blood is mixed with 6% dextran-3% dextrose in isotonic saline in the ratio 0.25 ml dextran solution per 1.0 ml blood. After mixing the blood is allowed to sit at room temperature for about 90 minutes while the RBC's settle. During this period, the plasma is removed with a plastic pepette to nalgens tubes.
The plasma is centrifuged at 800 rpm ([…]) on the Beckman Td-b refrigerated centrifuge to remove the platelets (which remain in the supernatant). The pellet, consisting of leukocytes and erythrocytes, is treated with 10 ml 0.87% ammonium chloride at room temperature for four minutes, lysing the red cells. At the end of four minutes the cells are diluted with a 2x volume of phosphate buffered saline, pH 7.4, and centrifuged for ten minutes. The cells are washed three times with the phosphate buffered saline. […]
A portion of the ethanol solution is injected into the HPLC system for 5-HETE quantitation.
The HPLC system consists of Hewlett-Packard 1040A UV spectrophotometry system with an HP85 computer. […] Peaks are measured with a Hewlett Packard 3390A integrator. […] The flow is monitored at 235 nm for 5-HETE quantitation. […]

As for `O=C(Nc1ccccc1CCc1ccc(Cl)c(Cl)c1)C1=C(O)c2ccccc2S(=O)(=O)C1` [Example 8, N-[2-[2-(3,4-Dichlorophenyl)ethyl]phenyl]-4-hydroxy-2H-1-benzothiopyran-3-carboxamide, 1,1-dioxide], the IC50 is 5e-06 M and 4.6e-06 M.

For the molecule `O=C(Nc1ccccc1Cc1ccc(Cl)c(Cl)c1)C1=C(O)c2ccccc2S(=O)(=O)C1` [Example 81, 2H-1-Benzothiopyran-3-carboxamide, N-[2-[(3,4-dichlorophenyl)methyl]phenyl]-4-hydroxy, 1,1-dioxide], the IC50 is 8.4e-06 M.
